Data published in US8927761B2, “Form of hexyl-5-aminolevulinate hydrochloride and methods of using the same” (Photocure ASA, priority 2012, dated 2015).

Experiment: Hot stage microscopy: conversion between solid forms on heating
Assay type: physicochemical
Conditions: solid state; conversion to the new Form shown by observed change in crystal morphology
Procedure: Hot stage microscopy was performed using a Linkam hot stage (model FTIR 600) mounted on a Leica DM LP microscope. Sample was observed using a 20× objective. Sample was placed on a coverslip, and a second coverslip was then placed over the sample. Each sample was visually observed as the stage was heated. The hot stage was calibrated using USP melting point standards.
Characteristic data for new Form C was obtained with X-ray powder diffraction (XRPD), differential scanning calorimetry (DSC), hot stage microscopy, infrared spectroscopy (IR), Raman spectroscopy, and solid state ^13C cross polarization magic angle spinning nuclear magnetic resonance spectroscopy. The new Form is a crystalline material that melts near 99° C. […] The particle morphology is observed as rays, lathe, and/or blades. The new Form is the thermodynamically stable form above 65° C.

temperature range in which the new Form is the thermodynamically stable form: above 65 °C
SMILES: CCCCCCOC(=O)CCC(=O)CN.Cl [Form C, hexyl 5-aminolevulinate hydrochloride]
